Measured values reported in ChEMBL document CHEMBL1201862, “PubChem BioAssay data set” (2004).
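Grown in 96-well plates, cells were treated for 48 hours with each compound at five concentrations. Insufficient inhibition: endpoint recorded as highest concentration tested. The concentration for 50% growth inhibition is given as GI50.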 Active and inactive are the calls of the source. No stated cut-off is given here; in the data, active = GI50 up to about 1.1 µM and inactive = higher.

Key:
Experiment in all cases: NCI-60 cell line screen, 48 h
[1] = tested on: OVCAR-5
[2] = tested on: MOLT-4
[3] = tested on: IGROV-1
[4] = tested on: SNB-75
[5] = tested on: SK-MEL-5
[6] = tested on: RPMI-8226
[7] = tested on: SK-MEL-2
[8] = tested on: SK-OV-3
[9] = tested on: NCI-H522
[10] = tested on: K562
[11] = tested on: SF-539
[12] = tested on: UACC-62
[13] = tested on: SF-295
[14] = tested on: MDA-MB-435
[15] = tested on: PC-3
[16] = tested on: OVCAR-3
[17] = tested on: HL-60
[18] = tested on: HOP-62
[19] = tested on: TK-10
[20] = tested on: SR

Structure (SMILES)	GI50 [1]	GI50 [2]	GI50 [3]	GI50 [4]	GI50 [5]	GI50 [6]	GI50 [7]	GI50 [8]	GI50 [9]	GI50 [10]	GI50 [11]	GI50 [12]	GI50 [13]	GI50 [14]	GI50 [15]	GI50 [16]	GI50 [17]	GI50 [18]	GI50 [19]	GI50 [20]
CC(C)(C)C1=CC(=CC=C2C=CN(CCCCCCCCCCCO)C=C2)C=C(C(C)(C)C)C1=O	2.48 µM (inactive)	1.32 µM (inactive)	0.815 µM (active)	1.82 µM (inactive)	1.73 µM (inactive)	0.338 µM (active)	1.83 µM (inactive)	2.16 µM (inactive)	0.453 µM (active)	1.06 µM (active)	2.07 µM (inactive)	1.5 µM (inactive)	1.38 µM (inactive)	1.7 µM (inactive)	1.69 µM (inactive)	1.01 µM (active)	1.72 µM (inactive)	1.74 µM (inactive)	1.5 µM (inactive)	0.401 µM (active)
CCOC(=O)C(NNS(=O)(=O)c1ccc(C)cc1)S(=O)(=O)C(F)(F)C(F)(F)C(F)(F)C(F)(F)F (stereo not given)	> 100 µM (inactive)	81.8 µM (inactive)	> 100 µM (inactive)	> 100 µM (inactive)	> 100 µM (inactive)	> 100 µM (inactive)	> 100 µM (inactive)	> 100 µM (inactive)	> 100 µM (inactive)	> 100 µM (inactive)	> 100 µM (inactive)	> 100 µM (inactive)	78.3 µM (inactive)	> 100 µM (inactive)	> 100 µM (inactive)	> 100 µM (inactive)	> 100 µM (inactive)	> 100 µM (inactive)	> 100 µM (inactive)	> 100 µM (inactive)
C[C@H]1CC[C@]2(NC1)O[C@H]1C[C@H]3[C@@H]4CC[C@H]5C[C@@H](O[C@@H]6O[C@H](CO)[C@H](O[C@@H]7O[C@H](CO)[C@@H](O)[C@H](O[C@@H]8OC[C@@H](O)[C@H](O)[C@H]8O)[C@H]7O[C@@H]7O[C@H](CO)[C@@H](O)[C@H](O)[C@H]7O)[C@H](O)[C@H]6O)CC[C@]5(C)[C@H]4CC[C@]3(C)[C@H]1[C@@H]2C [TOMATINE]	1.24 µM (inactive)	2.41 µM (inactive)	0.729 µM (active)	1.86 µM (inactive)	2.23 µM (inactive)	0.766 µM (active)	1.68 µM (inactive)	1.61 µM (inactive)	1.62 µM (inactive)	2.74 µM (inactive)	1.56 µM (inactive)	1.01 µM (active)	1.05 µM (active)	1.41 µM (inactive)	0.719 µM (active)	2.03 µM (inactive)	2.48 µM (inactive)	1.63 µM (inactive)	1.54 µM (inactive)	2.42 µM (inactive)
